Consider six compounds from patent publication US20160228444A1, “NUCLEOSIDE ANALOGS AND USES THEREOF” (Ramot at Tel-Aviv University Ltd., priority 2015, published 2016).

In one series the test system is bFGF. In words: bFGF protein and mRNA in tumor and heart of xenograft mice (Western blot, qRT-PCR). Type of series: in vivo. The note with it: for expression of mouse bFGF protein in the heart: FIG. 4D; for expression of bFGF in tumors / bFGF mRNA in the tumor: tumor; for bFGF mRNA in the tumor: FIG. 6. The protocol: (§1) Tumors and hearts of the mice were rapidly removed, frozen on dry ice and kept at −70° C. Tissue was then homogenized and RNA and proteins extracted using the NucleoSpin® RNA/Protein kit according to the manufacturer's protocol (Macherey-Nagel, GmbH & Co KG).
(§2) Total RNA ([…]) was primed by oligo dT and reverse-transcribed by Verso cDNA kit according to the manufacturer's protocol (Thermo Scientific). Analyses of qPCR were performed with Kapa Sybr® Fast (Kapa Biosystems) on a Step One Plus thermocycler (Applied Biosystems). The comparative threshold method was used to calculate the relative gene expression. Values were normalized against glyceraldehyde 3-phosphate dehydrogenase (GAPDH). Expression of the GAPDH mRNA in each individual sample was used to normalize the dataset. The sequences of the primers were as follows: […]
(§3) Protein levels in the samples were determined with the BCA protein assay kit (Pierce). The samples were subjected to Western blot analyses. The expression of proteins was visualized using their specified primary antibodies followed by the secondary IgG IRDye® 680DX antibody. Each detected band was quantified using the Odyssey Infrared Imaging System (LI-COR Biosciences) and normalized to the level of actin. The fold increase of a specific protein was determined by the ratio of the band intensity obtained from treated and untreated samples.
(§4) The pro-angiogenic factors basic fibroblast growth factor (bFGF) and vascular endothelial growth factor (VEGF) are potent angiogenic stimulators. The expression of bFGF in the tumor and in the heart was evaluated by Western blot and qRT-PCR analyses and expression of VEGF by IHC.

Series [1] deals with U251 human glioblastoma xenograft. In words: Glioblastoma xenograft model (survival, body weight, tumor volume, tumor weight, Ki-67). Particulars: for tumor volume of vehicle-treated group relative to treated group: from day 11, FIG. 3C.
Experimental: Xenograft of glioblastoma: 8- to 10-week-old male Hsd athymic FOXN (Harlan, Jerusalem, Israel) were inoculated sc in the flanks with 5×10^6 U251 cells. Tumor length (L) and width (W) were measured with a caliper twice weekly. Tumor volumes were calculated according to the formula: (L×W2)/2. When the tumor was established (volume of 50-100 mm^3) the mice were randomly divided into six groups treated with: vehicle control (saline); ip Dox 4 mg/kg once weekly; po AN446 25 mg/kg thrice a week; po AN7 50 mg/kg thrice a week; combination of AN446+Dox (4 mg/kg ip Dox once a week and 25 mg/kg po AN446 thrice a week); AN7+Dox (4 mg/kg ip Dox once a week and 50 mg/kg po AN7 thrice weekly). Untreated, non-bearing tumor naive mice were maintained under the same conditions. The experiment was terminated after 25 treatment days, the mice were sacrificed under CO2 and their tumors and hearts were removed, weighed and divided into parts dedicated for immunohistochemistry (IHC) and the rest were frozen (−80° C.) for Western blot and Quantitative PCR (qRT-PCR) analyses.
Inactivation of avidin-biotin nonspecific binding was prevented by a blocking kit, according to the manufacturer's protocol (Vector Laboratories). […] The secondary antibody was biotin conjugated goat anti-rabbit or anti-mouse IgG. Slides were then stained with the ABC peroxidase system, developed with diaminobenzidine (DAB) (Vector Laboratories) and counterstained with hematoxylin (Bio-Optica, Milano, Italy). The slides were examined using an Olympus BX 52 light microscope, and images were taken with an Olympus DP50 digital camera system.
Mice were implanted subcutaneously with U251 cells and when the tumors reached 50-100 mm^3 treatments were initiated. Survival was evaluated by the Kaplan-Meier end-product analysis, where treatment failure (the experimental end points) was a loss of ˜20% body weight, or a tumor volume of >1 cm^3.
For the next series, the system named is c-Myc. The series can be described thus: c-Myc and p-c-Myc (Thr 58) Western blot in tumor and heart of xenograft mice. Format: in vivo. The procedure:
as §3
The c-Myc protein is an important regulator of normal cell physiology and in tumor cells it plays an important role in activating oncogenic pathways [Soucek & Evan, Curr Opin Genet Dev 2010, 20:91-95].
For orientation: In western blotting, separated proteins are transferred to a membrane and probed.

The next series relates to HO-1. The series can be described thus: HO-1 protein and mRNA in tumor and heart of xenograft mice (Western blot, qRT-PCR). The note with it: heart. Type of series: in vivo. The procedure:
as §1, §2, §3
The effect of the drugs on the expression of genes associated with cell survival and death was examined by following changes in transcription and protein expression in tissue samples taken from the mice with glioblastoma xenografts. Heme oxygenase (HO-1) is known to play a protective role in the heart, whereas, in many cancers it is expressed and promotes growth and survival of neoplastic cells.

The subject of a further series is VEGF. The series can be described thus: VEGF immunohistochemistry in tumor and heart of xenograft mice. Type of series: in vivo. Particulars: FIG. 4F. The procedure:
as §4

The subject of series [2] is TLR4. The series can be described thus: TLR4 gene expression in MDA-MB-231 cells (qRT-PCR). Format: cell-based, human. The note with it: single agent, FIG. 7C. The protocol: (§5) The effect of AN446 on inflammation-associated pathways was evaluated in the monocytic THP1 cell line and in the MDA-MB-231 breast carcinoma cell line. Supernatants of treated THP1 cells were collected and IL-6, IL-10 and TNF-α concentrations were quantified by ELISA (R&D systems). TLR4 expression in THP1 cells was assessed using fluorescent anti-TLR4 antibodies and FACS analysis. In addition, gene expression for MCP-1, TNF-α and TLR4 in MDA-MB-231 was evaluated by qRT-PCT, following treatment with AN446 and/or paclitaxel.
For orientation: In qPCR the cycle at which signal appears reflects the starting amount.

A further series has as its system T47D cells. The series can be described thus: Median-effect drug interaction, Hoechst viability, 72 h. Format: cell-based, human. The note with it: for IC50: Homo sapiens. The procedure:
(§6) The ratios of the drug combination were based on the ratio of their IC50 of each drug alone. Cell viability was determined by MTT assay, as described hereinabove. The drugs were added to the cells and incubated for 72 h.
(§7) Drug interaction in adherent cells was evaluated as above except that the viability was determined by Hoechst assay.

Another series has as its system MDA-231 cells. The series is described as above. Format: cell-based, human. Particulars: for IC50: Homo sapiens. The protocol:
as §6, §7

Series [3] has as its system NCI-N87 gastric carcinoma cells. The series is described as above. Format: cell-based, human. The note with it: Homo sapiens. The procedure: as §6, §7
The next series concerns MCP-1. In words: MCP-1 gene expression in MDA-MB-231 cells (qRT-PCR). Format: cell-based, human. The note with it: single agent, FIG. 7C. The procedure:
as §5

The subject of another series is TNF-α. In words: TNF-α gene expression in MDA-MB-231 cells (qRT-PCR). Format: cell-based, human. The note with it: single agent, FIG. 7C. The procedure: as §5
The subject of series [4] is TLR4. The note with it: 24 hours, concentrations based on the IC50, FIG. 15.
The test system of the next series is U251 cells. In words: Hoechst viability assay 72 h / median-effect combination study. The note with it: Homo sapiens, U-251, 72 h, read-out: IC50 value for viability in U251 cells after 72 hours.

The structures appear in SMILES notation. Where two headings read alike, the source gives them in different places.

In general, IC50 refers to the concentration at which inhibition is half-maximal.

Experimental for U251 cells: Hoechst assay: 22RV-1, MCF-7, MCF-7DX, 4T1, U251, and T47D cells (3×10^3 cells/well) and NCI-N87 (8×10^3 cells/well) were seeded in tissue culture in growth medium for 24 h in 96-well plates (in triplicate) and then exposed to different concentrations (titration) of the tested drug for 72 h at 37° C. The plates were then rinsed with PBS and fixed with 100 ml of 70% ethanol for 30 min. […] The fluorescence was measured (excitation at 390 nm and emission at 460 nm) with a Synergy III Fluorometer-Elisa reader (BioTek Instruments, Inc. Germany).
The Median Effect Analysis (MEA) for a constant combination ratio was used for drugs interaction and the combination index (CI) determination.
The average values of three independent experiments were calculated and analyzed with CalcuSyn software.

As for `CCCC(=O)OCOP(=O)(OCC)OCC` [AN7, butyroxymethyl diethylphosphate], the “expression of mouse bFGF protein in the heart” value in the series on bFGF (co-treatment with Dox) is given as “significantly increased its expression to a level higher than that observed in naive or vehicle-treated mice”; with bFGF (single agent), “unchanged”. For the same compound, the “expression of bFGF in tumors” value in the series with bFGF (combination with Dox) is “further diminished”; with bFGF (single agent, FIGS. 4A, 4B), “decreased significantly”. Besides, the “bFGF mRNA in the tumor” value in the series with bFGF (combined treatment with Dox) is “suppressed it significantly further”; in the series on bFGF (single agent), “significantly reduced the bFGF mRNA”. The “survival of mice when added to Dox treatment” value in series [1] (added to Dox 4 mg/kg ip once a week, day 25, FIG. 3A) came to 100%. For the same compound, the “body weight loss when added to Dox treatment” value in [1] (added to Dox 4 mg/kg, FIG. 3B) is “significant attenuation of body weight loss”. Further, the “Ki-67 positive (proliferating) cells in tumors” value in series [1] (in combination with Dox, FIG. 3F) is reported as “reduced the proliferating cells to a level significantly lower than any of the single drug treatments”. For the same compound, the “tumor volume of vehicle-treated group relative to treated group” value in [1] (in combination with Dox) was 3 fold; in [1] (single agent) it was 2 fold. Also, the “Ki-67 positive cells in tumors” value in series [1] (single agent vs vehicle, FIGS. 3E, 3F) is listed as “considerably more Ki-67 positive cells were detected in tumors of the vehicle-treated mice”. Also, the “survival of mice until end of experiment (day 25)” value in series [1] (single agent: AN446 25 mg/kg or AN7 50 mg/kg po thrice weekly, Dox 4 mg/kg ip once a week, FIG. 3A) worked out at 100%. In addition, the “c-Myc protein expression in the hearts” value in the series on c-Myc (heart, FIG. 5B) is “not affected”. Also, in the series with c-Myc (tumor, FIG. 5A), the “c-Myc protein expression in tumors” value is recorded as “decreased dramatically”. Moreover, in the series with HO-1 (co-treatment with Dox), the “HO-1 expression in the heart” value is listed as “increased the expression of this enzyme to a significantly higher level”. Besides, in the series on HO-1 (co-treatment with Dox), the “HO-1 mRNA in the heart, elevation of basal expression level” value stood at 1.76±0.36 fold. For the same compound, in the series with HO-1 (single agent, FIGS. 4D, 4E), the “HO-1 expression in the heart (decrease)” value was “did not significantly change”. Also, in the series on VEGF, the “VEGF expression in the heart” value is reported as “elevated”.

Turning to `CC(=O)O[C@H]1C(=O)[C@@]2(C)[C@H]([C@H](OC(=O)c3ccccc3)[C@]3(O)C[C@H](OC(=O)[C@H](O)[C@@H](NC(=O)c4ccccc4)c4ccccc4)C(C)=C1C3(C)C)[C@]1(OC(C)=O)CO[C@@H]1C[C@@H]2O` [Paclitaxel, paclitaxel], in the series on TLR4 [2], the “expression of TLR4” value is “paclitaxel-induced increase”. Besides, the IC50 amounted to 0.0028 ± 0.0001 µM in the series with T47D cells (paclitaxel in combination with AN446, read-out: Paclitaxel com IC50); 0.0023 ± 1e-05 µM in the series on T47D cells (paclitaxel in combination with SAHA, read-out: Paclitaxel com IC50); 0.0036 ± 0.0001 µM in the series with T47D cells (paclitaxel in combination with valproic acid, read-out: Paclitaxel com IC50); 0.0032 ± 0.0001 µM in the series on T47D cells (single agent, read-out: Paclitaxel IC50); 0.0017 ± 1e-05 µM in the series with MDA-231 cells (MDA-MB-231, MDA-231, paclitaxel in combination with AN446, read-out: Paclitaxel com IC50); 0.0015 µM in the series with MDA-231 cells (MDA-MB-231, MDA-231, paclitaxel in combination with SAHA, read-out: Paclitaxel com IC50). In addition, the IC50 in the series on MDA-231 cells (MDA-MB-231, MDA-231, paclitaxel in combination with valproic acid, read-out: Paclitaxel com IC50) was 0.0016 ± 1e-05 µM; with MDA-231 cells (MDA-MB-231, MDA-231, single agent, read-out: Paclitaxel IC50), 0.0044 ± 0.0002 µM; in series [3] (NCI-N87, paclitaxel in combination with AN446, read-out: Paclitaxel com IC50) it was 0.0018 ± 0.0002 µM; in series [3] (NCI-N87, single agent, read-out: Paclitaxel IC50) it was 0.004 µM. Moreover, in the series on MCP-1, the “expression of MCP-1” value was “paclitaxel-induced increase”. Besides, the “expression of TNF-α” value in the series with TNF-α is on record as “paclitaxel-induced increase”.

As to `O=C(CCCCCCC(=O)Nc1ccccc1)NO` [SAHA, suberanilohydroxamic acid], the half-maximal inhibitory concentration (IC50) in the series on T47D cells (in combination with Dox, read-out: com IC50) is 0.13 µM. The “TLR4 expression in MDA-231 cells” value with TLR4 [4] is on record as “no apparent effect on TLR4 expression”.

`CCCC(CCC)C(=O)O` [Valproic acid, valproic acid]: the “CI (combination index with paclitaxel)” value was found to be 1.1 in the series on T47D cells and 0.8 in the series with MDA-231 cells (MDA-231). Further, the IC50 amounted to 1800 ± 100 µM with T47D cells (in combination with paclitaxel, read-out: com IC50); 4400 ± 300 µM in the series on T47D cells (single agent, Table 3, read-out: IC50); 1600 ± 10 µM in the series on MDA-231 cells (MDA-MB-231, MDA-231, in combination with paclitaxel, read-out: com IC50); 3900 ± 200 µM in the series on MDA-231 cells (MDA-MB-231, MDA-231, single agent, Table 3, read-out: IC50); 3000 µM in the series on U251 cells.

`Nc1ccccc1NC(=O)c1ccc(CNC(=O)OCc2cccnc2)cc1` [entinostat]: the IC50 in the series on U251 cells is 2 µM. Further, the “TLR4 expression in MDA-231 cells” value in the series with TLR4 [4] is recorded as “no apparent effect on TLR4 expression”.

In the case of `C/C=C1\NC(=O)[C@H]2CSSCC/C=C/[C@H](CC(=O)N[C@H](C(C)C)C(=O)N2)OC(=O)[C@H](C(C)C)NC1=O` [romidepsin], the IC50 with U251 cells was 0.001 µM.
